Measurements: US7767240B2, “Microbiological control in poultry processing” (priority 2001, dated 2010)

What was measured:
Assay type in all cases: cell-based
[1] = tested on: total bacteria (S. sonnei, L. monocytogenes, E. coli, S. enteritidis, P. aeruginosa, C. jejuni); assay: Total bacteria reduction from control over 20-day storage (Example 4); settings: pH 8
Protocol: A study was conducted to determine the effect of Clorox® bleach, and 1,3-dibromo-5,5-dimethylhydantoin (DBDMH) on carcass bacteria residual after 1.5 hour in a chill tank solution and spoilage 20-day shelf life longevity (caused by bacteria contamination). Tests were conducted at pH 8 (adjusted by trisodium phosphate). Skin pigmentation (Minolta Color Meter L value or Lightness, a value or redness and b value or yellowness) were determined before and post-processing.
In general the study involved normal processing of 56-day-old birds, immersing carcasses first in a warm bath containing 10^4 per mL Escherichia coli, 10^4 per mL Salmonella enteritidis, 10^4 per mL Pseudomonas aeruginosa, 10^4 per mL Campylobacter jejuni, and 10^4 per mL spoilage bacteria each from […] strains (Listeria monocytogenes and Shigella sonnei). Carcass were then immersed in a chill tank “soup”, containing normal organic fluids (blood, fat, skin, and meat particles) and containing various disinfectants (termed test materials).
A DBDMH stock solution and test solutions, a bacteria stock solution, and a “chicken soup” were prepared as in Example 3. In addition, the bacterial broth treatments, the whole bird wash sampling procedure, and the methodologies used for quantitative or qualitative determinations for bacterial organisms were conducted as in Example 3.
In greater detail the trial events and experimental design used in this group of tests were as follows: • a) Test microorganisms used were: • Escherichia coli ATCC 11229 • Pseudomonas aeruginosa ATCC 15442 • Salmonella enteritidis ATCC 13076 • Shigella sonnei ATCC 9290 • Listeria monocytogenes ATCC 7644 • Campylobacter jejuni ATCC 29428 • b) Test Procedure: All test strains were grown individually at 35° C. for 24 hours in the media specified in Table 12. Cells were harvested by centrifugation at 10,000×g for 10 minutes and washed twice with Butterfield's Phosphate Buffer (BPB of pH 7.2). Cells were resuspended in BPB to obtain a cell suspension of approximately 1.0×10^8 CFU/mL for each microorganism. The target inoculum levels were approximately 10^6 CFU/mL in the final test solutions. In the cases of S. enteritidis and P. aeruginosa the species were washed by pouring into prepared sterile centrifuge tubes with cheesecloth filters. The culture was then pelleted and washed using above techniques and repeated 3 times. • c) The birds (56 days old) were processed under normal commercial conditions. • d) The bacteria were added to a large batch of the “chicken soup”, and then aliquots of the resultant mixture were distributed equally among the chill waters used for each test. Then the particular disinfectant composition under test was added to one of the chill waters. […]

[2] = tested on: biofilm-associated HPC (heterotrophic plate count) bacteria; assay: HPC bacteria eradication in biofilm, PVC sampling pipes
From the text: (§1) In another group of tests, the results of which are depicted in FIGS. 5 through 10, several bromine-based microbiocides of this invention were utilized in tests illustrating their effectiveness in eradicating or controlling Heterotrophic Plate Count bacteria i.e., a mixture of naturally-occurring pathogenic bacteria of various unidentified species. These bacteria were challenged both in the form of biofilms and in planktonic form.
(§2) The experimental conditions utilized in these tests involved use of an apparatus consisting of three parallel transparent PVC sampling pipes. These pipes were used for collection of biofilm (i.e., sessile or surface attached) bacteria samples; one as control pipe, one for a relatively low biocide concentration and the third for a higher biocide concentration. The biocide challenge in each case was divided into three phases. First was a 14-day inoculation. Next was a 48-hour disinfection period. Finally a 2-week recovery period was provided. The biocide under test was slug-dosed and during the first hour of exposure, the concentration was adjusted to achieve the desired concentration level.
(§3) The source of the naturally-grown heterotrophic plate count (HPC) bacteria was sediment and associated water collected from the recirculating hot water system of a hospital. […]

[3] = tested on: planktonic HPC (heterotrophic plate count) bacteria; assay: HPC bacteria eradication in planktonic form, PVC sampling pipes
From the text: as §1, §2, §3

[4] = 0.5 ppm as bromine, within three hours
[5] = 5 ppm as bromine, within twelve hours

SMILES: CC1(C)C(=O)N(Br)C(=O)N1Br [DBDMH, 1,3-dibromo-5,5-dimethylhydantoin]
- Percentage of Total Bacteria Reduction From Control (Mean % Reduction From Control) ([1]; Day 0 post-processing, 10 ppm): 77.8%
- Percentage of Total Bacteria Reduction From Control (Mean % Reduction From Control) ([1]; Day 0 post-processing, 20 ppm): 99.5%
- Percentage of Total Bacteria Reduction From Control (Mean % Reduction From Control) ([1]; Day 2 post-processing, 10 ppm): 77.3%
- Percentage of Total Bacteria Reduction From Control (Mean % Reduction From Control) ([1]; Day 2 post-processing, 20 ppm): 99.4%
- Percentage of Total Bacteria Reduction From Control (Mean % Reduction From Control) ([1]; Day 4 post-processing, 10 ppm): 76.8%
- Percentage of Total Bacteria Reduction From Control (Mean % Reduction From Control) ([1]; Day 4 post-processing, 20 ppm): 99.2%
- Percentage of Total Bacteria Reduction From Control (Mean % Reduction From Control) ([1]; Day 6 post-processing, 10 ppm): 77.1%
- Percentage of Total Bacteria Reduction From Control (Mean % Reduction From Control) ([1]; Day 6 post-processing, 20 ppm): 98.5%
- Percentage of Total Bacteria Reduction From Control (Mean % Reduction From Control) ([1]; Day 8 post-processing, 10 ppm): 74.6%
- Percentage of Total Bacteria Reduction From Control (Mean % Reduction From Control) ([1]; Day 8 post-processing, 20 ppm): 97.3%
- Percentage of Total Bacteria Reduction From Control (Mean % Reduction From Control) ([1]; Day 10 post-processing, 10 ppm): 71.9%
- Percentage of Total Bacteria Reduction From Control (Mean % Reduction From Control) ([1]; Day 10 post-processing, 20 ppm): 95.1%
- Percentage of Total Bacteria Reduction From Control (Mean % Reduction From Control) ([1]; Day 12 post-processing, 10 ppm): 69.2%
- Percentage of Total Bacteria Reduction From Control (Mean % Reduction From Control) ([1]; Day 12 post-processing, 20 ppm): 91.2%
- Percentage of Total Bacteria Reduction From Control (Mean % Reduction From Control) ([1]; Day 14 post-processing, 10 ppm): 66.2%
- Percentage of Total Bacteria Reduction From Control (Mean % Reduction From Control) ([1]; Day 14 post-processing, 20 ppm): 84.3%
- Percentage of Total Bacteria Reduction From Control (Mean % Reduction From Control) ([1]; Day 16 post-processing, 10 ppm): 61.9%
- Percentage of Total Bacteria Reduction From Control (Mean % Reduction From Control) ([1]; Day 16 post-processing, 20 ppm): 71.2%
- Percentage of Total Bacteria Reduction From Control (Mean % Reduction From Control) ([1]; Day 18 post-processing, 10 ppm): 58.5%
- Percentage of Total Bacteria Reduction From Control (Mean % Reduction From Control) ([1]; Day 18 post-processing, 20 ppm): 68.0%
- Percentage of Total Bacteria Reduction From Control (Mean % Reduction From Control) ([1]; Day 20 post-processing, 10 ppm): 53.7%
- Percentage of Total Bacteria Reduction From Control (Mean % Reduction From Control) ([1]; Day 20 post-processing, 20 ppm): 67.2%
- biofilm-associated HPC bacteria eradicated [2, 4]: over 99%
- biofilm-associated HPC bacteria eradicated [2, 5]: ~99.9%
- planktonic HPC bacteria eradicated [3, 4]: ~99%
- planktonic HPC bacteria eradicated [3, 5]: ~99.99%
